Assay results taken from the NIST ThermoML archive (doi:10.1016/j.jct.2016.08.001).

What was measured:
[1] = xn = mol fraction of the nth substance listed; conditions: 100 kPa, Liquid; for speed of sound: Frequency=3 MHz, Sing-around technique in a fixed-path interferometer; for mass density: Vibrating tube method
[2] = refractive index (Na D-line) (dimensionless); xn = mol fraction of the nth substance listed; conditions: 100 kPa, Liquid, Standard Abbe refractometry

O=Cc1ccccc1 [benzaldehyde] + CCOC(=O)OCC
Conditions | mass density, [1] [kg/m3] | refractive index, [2] | speed of sound, [1] [m/s]
298.15 K, x2 = 0 | 1041 | 1.541 | 1457.3
298.15 K, x2 = 0.0933 | 1035 | 1.5244 | 1430.7
298.15 K, x2 = 0.1658 | 1030.2 | 1.5118 | 1409
298.15 K, x2 = 0.267 | 1023.4 | 1.4947 | 1379.1
298.15 K, x2 = 0.36 | 1016.9 | 1.4794 | 1352.5
298.15 K, x2 = 0.4554 | 1010.4 | 1.4638 | 1325.4
298.15 K, x2 = 0.5605 | 1003 | 1.4472 | 1296.3
298.15 K, x2 = 0.6547 | 996.2 | 1.4325 | 1269.8
298.15 K, x2 = 0.7716 | 987.4 | 1.415 | 1238.2
298.15 K, x2 = 0.8473 | 981.4 | 1.4039 | 1217
303.15 K, x2 = 0 | 1036.5 | 1.5383 | 1438.9
303.15 K, x2 = 0.0933 | 1030.6 | 1.522 | 1412.1
303.15 K, x2 = 0.1658 | 1025.7 | 1.5094 | 1389.9
303.15 K, x2 = 0.267 | 1018.7 | 1.4924 | 1359.9
303.15 K, x2 = 0.36 | 1012.2 | 1.4771 | 1333.1
303.15 K, x2 = 0.4554 | 1005.4 | 1.4616 | 1305.8
303.15 K, x2 = 0.5605 | 997.9 | 1.445 | 1276.5
303.15 K, x2 = 0.6547 | 991 | 1.4304 | 1249.9
303.15 K, x2 = 0.7716 | 982.1 | 1.4129 | 1218.1
303.15 K, x2 = 0.8473 | 976 | 1.4017 | 1196.8
308.15 K, x2 = 0 | 1032 | 1.5357 | 1420.6
308.15 K, x2 = 0.0933 | 1026.2 | 1.5195 | 1393.5
308.15 K, x2 = 0.1658 | 1021.2 | 1.5071 | 1371.1
308.15 K, x2 = 0.267 | 1014.1 | 1.4902 | 1340.8
308.15 K, x2 = 0.36 | 1007.4 | 1.475 | 1313.8
308.15 K, x2 = 0.4554 | 1000.6 | 1.4596 | 1286.3
308.15 K, x2 = 0.5605 | 992.9 | 1.443 | 1256.9
308.15 K, x2 = 0.6547 | 985.8 | 1.4283 | 1230.1
308.15 K, x2 = 0.7716 | 976.8 | 1.4108 | 1198.1
308.15 K, x2 = 0.8473 | 970.7 | 1.3995 | 1176.7
313.15 K, x2 = 0 | 1027.5 | 1.5332 | 1402.4
313.15 K, x2 = 0.0933 | 1021.8 | 1.5171 | 1375
313.15 K, x2 = 0.1658 | 1016.7 | 1.5048 | 1352.4
313.15 K, x2 = 0.267 | 1009.5 | 1.488 | 1321.8
313.15 K, x2 = 0.36 | 1002.7 | 1.4728 | 1294.6
313.15 K, x2 = 0.4554 | 995.6 | 1.4574 | 1267
313.15 K, x2 = 0.5605 | 987.9 | 1.4409 | 1237.4
313.15 K, x2 = 0.6547 | 980.7 | 1.4262 | 1210.4
313.15 K, x2 = 0.7716 | 971.6 | 1.4087 | 1178.3
313.15 K, x2 = 0.8473 | 965.4 | 1.3973 | 1156.8
318.15 K, x2 = 0 | 1023 | 1.5307 | 1384.4
318.15 K, x2 = 0.0933 | 1017.3 | 1.515 | 1356.6
318.15 K, x2 = 0.1658 | 1012.2 | 1.5028 | 1333.8
318.15 K, x2 = 0.267 | 1004.9 | 1.486 | 1303.3
318.15 K, x2 = 0.36 | 997.9 | 1.4708 | 1275.8
318.15 K, x2 = 0.4554 | 990.7 | 1.4555 | 1248
318.15 K, x2 = 0.5605 | 982.8 | 1.439 | 1218.3
318.15 K, x2 = 0.6547 | 975.6 | 1.4242 | 1191.5
318.15 K, x2 = 0.7716 | 966.4 | 1.4067 | 1159
318.15 K, x2 = 0.8473 | 960.1 | 1.3952 | 1137.3
323.15 K, x2 = 0 | 1018.4 | 1.5282 | 1366.4
323.15 K, x2 = 0.0933 | 1012.8 | 1.5124 | 1339.3
323.15 K, x2 = 0.1658 | 1007.7 | 1.5003 | 1316.3
323.15 K, x2 = 0.267 | 1000.2 | 1.4836 | 1285.3
323.15 K, x2 = 0.36 | 993.1 | 1.4685 | 1257.7
323.15 K, x2 = 0.4554 | 985.8 | 1.4532 | 1229.8
323.15 K, x2 = 0.5605 | 977.7 | 1.4368 | 1199.9
323.15 K, x2 = 0.6547 | 970.4 | 1.4221 | 1173.1
323.15 K, x2 = 0.7716 | 961.1 | 1.4046 | 1140.6
323.15 K, x2 = 0.8473 | 954.8 | 1.3931 | 1118.8

N#Cc1ccccc1 [benzonitrile] + CCOC(=O)OCC
Conditions | mass density, [1] [kg/m3] | refractive index, [2] | speed of sound, [1] [m/s]
298.15 K, x2 = 0 | 1000.6 | 1.526 | 1415.6
298.15 K, x2 = 0.0854 | 998.8 | 1.5123 | 1396.3
298.15 K, x2 = 0.1886 | 996.7 | 1.4963 | 1373.1
298.15 K, x2 = 0.2618 | 994.9 | 1.4851 | 1356.1
298.15 K, x2 = 0.3642 | 992.1 | 1.4698 | 1331.9
298.15 K, x2 = 0.462 | 989.3 | 1.4556 | 1308.6
298.15 K, x2 = 0.5563 | 986.3 | 1.442 | 1286.1
298.15 K, x2 = 0.6599 | 982.7 | 1.4275 | 1261
298.15 K, x2 = 0.7732 | 978.5 | 1.412 | 1233.3
298.15 K, x2 = 0.8703 | 974.6 | 1.3991 | 1209.4
303.15 K, x2 = 0 | 995.9 | 1.5235 | 1398.1
303.15 K, x2 = 0.0854 | 994 | 1.5098 | 1378.5
303.15 K, x2 = 0.1886 | 991.9 | 1.494 | 1354.8
303.15 K, x2 = 0.2618 | 990 | 1.4828 | 1337.7
303.15 K, x2 = 0.3642 | 987.2 | 1.4676 | 1313.1
303.15 K, x2 = 0.462 | 984.3 | 1.4533 | 1289.5
303.15 K, x2 = 0.5563 | 981.2 | 1.4398 | 1266.7
303.15 K, x2 = 0.6599 | 977.5 | 1.4253 | 1241.3
303.15 K, x2 = 0.7732 | 973.2 | 1.4098 | 1213.3
303.15 K, x2 = 0.8703 | 969.2 | 1.3969 | 1189.2
308.15 K, x2 = 0 | 991.4 | 1.5209 | 1380.8
308.15 K, x2 = 0.0854 | 989.5 | 1.5074 | 1360.8
308.15 K, x2 = 0.1886 | 987.2 | 1.4916 | 1336.7
308.15 K, x2 = 0.2618 | 985.3 | 1.4806 | 1319.3
308.15 K, x2 = 0.3642 | 982.3 | 1.4653 | 1294.4
308.15 K, x2 = 0.462 | 979.3 | 1.4511 | 1270.6
308.15 K, x2 = 0.5563 | 976.1 | 1.4376 | 1247.4
308.15 K, x2 = 0.6599 | 972.3 | 1.4231 | 1221.8
308.15 K, x2 = 0.7732 | 967.8 | 1.4076 | 1193.5
308.15 K, x2 = 0.8703 | 963.7 | 1.3946 | 1169.1
313.15 K, x2 = 0 | 986.9 | 1.5184 | 1363.6
313.15 K, x2 = 0.0854 | 984.9 | 1.505 | 1343.2
313.15 K, x2 = 0.1886 | 982.5 | 1.4893 | 1318.7
313.15 K, x2 = 0.2618 | 980.5 | 1.4783 | 1301
313.15 K, x2 = 0.3642 | 977.4 | 1.4631 | 1275.9
313.15 K, x2 = 0.462 | 974.2 | 1.4489 | 1251.8
313.15 K, x2 = 0.5563 | 970.9 | 1.4353 | 1228.3
313.15 K, x2 = 0.6599 | 967 | 1.4208 | 1202.4
313.15 K, x2 = 0.7732 | 962.4 | 1.4054 | 1173.8
313.15 K, x2 = 0.8703 | 958.2 | 1.3924 | 1149.2
318.15 K, x2 = 0 | 982.5 | 1.5158 | 1346.5
318.15 K, x2 = 0.0854 | 980.4 | 1.5025 | 1325.7
318.15 K, x2 = 0.1886 | 977.9 | 1.487 | 1300.8
318.15 K, x2 = 0.2618 | 975.8 | 1.4761 | 1282.9
318.15 K, x2 = 0.3642 | 972.5 | 1.4609 | 1257.4
318.15 K, x2 = 0.462 | 969.2 | 1.4466 | 1233
318.15 K, x2 = 0.5563 | 965.8 | 1.4332 | 1209.3
318.15 K, x2 = 0.6599 | 961.7 | 1.4187 | 1183.2
318.15 K, x2 = 0.7732 | 956.9 | 1.4032 | 1154.3
318.15 K, x2 = 0.8703 | 952.7 | 1.3902 | 1129.5
323.15 K, x2 = 0 | 977.9 | 1.5133 | 1329.5
323.15 K, x2 = 0.0854 | 975.8 | 1.5002 | 1308.3
323.15 K, x2 = 0.1886 | 973.2 | 1.4848 | 1282.9
323.15 K, x2 = 0.2618 | 971 | 1.4739 | 1264.9
323.15 K, x2 = 0.3642 | 967.6 | 1.4587 | 1239.3
323.15 K, x2 = 0.462 | 964.2 | 1.4445 | 1214.5
323.15 K, x2 = 0.5563 | 960.6 | 1.431 | 1190.6
323.15 K, x2 = 0.6599 | 956.5 | 1.4165 | 1164.1
323.15 K, x2 = 0.7732 | 951.5 | 1.401 | 1135
323.15 K, x2 = 0.8703 | 947.1 | 1.3881 | 1110
